Where “and” joins values, the source holds several entries; their conditions need not be identical. Equal entries are not always repeated. Where two headings read alike, the source gives them in different places.
Key:
H9c2 cardiomyoblasts = assay: MTT cytotoxicity assay, H9c2 cells; type: cell-based, rat; conditions: for IC50: MTT, read-out: IC50
Procedure, shortened: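 Cells seeded 24 h at 37 °C (MCF-7 5,000, HCT116 and A549 2,000, H9c2 10,000 per well; H9c2 then 24 h in serum- and pyruvate-free DMEM), then exposed to Bp4eT or metabolites 72 h at 37 °C with 0.1% DMSO. MTT read at 570 nm minus 690 nm; viability as % of untreated control, IC50 derived.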

[1] = MTT cytotoxicity assay, 3T3 cells; type: cell-based, mouse; conditions: mouse, 3T3 mouse embryo fibroblasts, 3T3, 10 000 b/j; for viability at 72 h, 3 nM: koncentrace 3 nM; for viability at 72 h, 10 nM: koncentrace 10 nM; for viability at 72 h, 30 nM: koncentrace 30 nM; for viability at 72 h, 100 nM: koncentrace 100 nM; for viability at 72 h, 300 nM: koncentrace 300 nM; for viability at 72 h, 1000 nM: koncentrace 1000 nM; for viability at 72 h, 3000 nM: koncentrace 3000 nM
Procedure, shortened: (§1)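 Non-cancerous 3T3 mouse embryo fibroblasts were plated at 10,000 cells/well in 96-well plates and cultured for 24 h/37°C. The medium was then replaced with serum- and pyruvate-free DMEM for a further 24 h/37°C. Cells were exposed to agents for 72 h/37°C with 0.1% DMSO present, and viability was measured by MTT.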

[2] = system: 3T3 mouse embryo fibroblasts; assay: MTT cytotoxicity assay, 3T3 cells; type: cell-based; conditions: for IC50: MTT
Procedure, shortened: as §1

MCF-7 cells = assay: Cellular 59Fe uptake from 59Fe2-transferrin; type: cell-based, human; design: key to Uptake 59Fe, Ave / Uptake 59Fe: % of internalized 59Fe in untreated control cells
Procedure, shortened: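 Confluent MCF-7 cells were incubated 3 h at 37°C with 0.75 μM ⁵⁹Fe₂-transferrin (500 pCi/pmol Fe) plus chelator at 25 μM. Membrane-bound ⁵⁹Fe was released with Pronase (1 mg/mL, 30 min, 4°C). Pronase-insensitive internalized ⁵⁹Fe was expressed as % of untreated control.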

caspases 3/7 = assay: Caspase activity, luminescent kit, caspases 3/7; type: cell-based, human; conditions: for kaspáza (3) a 7, průměry (means of raw signal): mean of 4 experiments; for kaspáza (3) a 7, raw signal / kaspáza (3) a 7, signal / viabilita: individual experiments by date
Experimental: To assess the effect of the compounds on caspase activity, MCF-7 cells were incubated with 100 nM Bp4eT or its metabolites for 3, 24 or 72 h/37°C in 96-well plates, as described above. The cells were then lysed by adding 100 μL of cold lysis buffer (100 mM HEPES, 10 mM CHAPS, 10 mM D-L-dithiothreitol, pH 7.4) to 100 μL of medium in each well. Lysates were immediately frozen at -80°C. Thawed lysates were used to assess caspase activity using luminescent kits for caspases 3/7, 8 and 9 (Promega, Madison, WI, USA). The luminescence was measured using the Tecan Infinite 200M plate reader. Caspase activity in the experimental groups was corrected according to the cellular viability of each group and expressed as a percentage of activity of the untreated control (100%).

[3] = individual experiments, read-out: MTT viability (0 = 100)
[4] = mean, read-out: MTT viability (0 = 100), průměr

CCNC(=S)NN=C(c1ccccc1)c1ccccn1 [Bp4eT, 2-benzoylpyridine 4-ethyl-3-thiosemicarbazone]
MTT, relative to control (0 = 100) (H9c2 cardiomyoblasts; H9c2, 10 000 b/j, 3 nM, průměr (mean)): 99.21 | MTT, relative to control (0 = 100) (H9c2 cardiomyoblasts; H9c2, 10 000 b/j, 3 nM, single experiment (date)): 102.894 and 97.5415 and 98.1925 and 99.1728 and 98.234 | MTT, relative to control (0 = 100) (H9c2 cardiomyoblasts; H9c2, 10 000 b/j, 10 nM, průměr (mean)): 97.95 | MTT, relative to control (0 = 100) (H9c2 cardiomyoblasts; H9c2, 10 000 b/j, 10 nM, single experiment (date)): 93.4128 and 99.1411 and 98.6466 and 98.7917 and 99.7545 | MTT, relative to control (0 = 100) (H9c2 cardiomyoblasts; H9c2, 10 000 b/j, 30 nM, průměr (mean)): 93.46 | MTT, relative to control (0 = 100) (H9c2 cardiomyoblasts; H9c2, 10 000 b/j, 30 nM, single experiment (date)): 89.8997 and 94.1191 and 90.5168 and 97.6473 and 95.1275 | MTT, relative to control (0 = 100) (H9c2 cardiomyoblasts; H9c2, 10 000 b/j, 100 nM, průměr (mean)): 83.34 | MTT, relative to control (0 = 100) (H9c2 cardiomyoblasts; H9c2, 10 000 b/j, 100 nM, single experiment (date)): 88.1519 and 73.0922 and 83.4003 and 88.2 and 83.8639 | MTT, relative to control (0 = 100) (H9c2 cardiomyoblasts; H9c2, 10 000 b/j, 300 nM, průměr (mean)): 64.46 | MTT, relative to control (0 = 100) (H9c2 cardiomyoblasts; H9c2, 10 000 b/j, 300 nM, single experiment (date)): 78.5818 and 47.7898 and 54.7281 and 65.2971 and 75.8815 | MTT, relative to control (0 = 100) (H9c2 cardiomyoblasts; H9c2, 10 000 b/j, 1000 nM, průměr (mean)): 35.85 | MTT, relative to control (0 = 100) (H9c2 cardiomyoblasts; H9c2, 10 000 b/j, 1000 nM, single experiment (date)): 36.8685 and 33.593 and 34.7888 and 38.1329 | MTT, relative to control (0 = 100) (H9c2 cardiomyoblasts; H9c2, 10 000 b/j, 3000 nM, průměr (mean)): 31.03 | MTT, relative to control (0 = 100) (H9c2 cardiomyoblasts; H9c2, 10 000 b/j, 3000 nM, single experiment (date)): 33.7493 and 30.5962 and 27.1956 and 32.5967 | IC50 (H9c2 cardiomyoblasts; H9c2, 10 000 b/j, single experiment (date)): 360 nM and 438 nM and 587 nM | IC50 (H9c2 cardiomyoblasts; Rattus norvegicus, H9c2, 72 h, H9c2, 72 h/37°C, mean ± SD, n ≥ 4): 524 ± 157 nM | IC50 (H9c2 cardiomyoblasts; Rattus norvegicus, H9c2, H9c2, 10 000 b/j, průměr (mean)): 524 nM | IC50 (H9c2 cardiomyoblasts; Rattus norvegicus, H9c2, H9c2, 10 000 b/j, single experiment (date)): 713 nM | viability at 72 h, 3 nM [1, 3]: 101% | viability at 72 h, 3 nM [1, 4]: 102% | viability at 72 h, 10 nM [1, 3]: 93.7% | viability at 72 h, 10 nM [1, 4]: 98.6% | viability at 72 h, 30 nM [1, 3]: 89% | viability at 72 h, 30 nM [1, 4]: 91.5% | viability at 72 h, 100 nM [1, 3]: 75.4% | viability at 72 h, 100 nM [1, 4]: 72.8% | viability at 72 h, 300 nM [1, 3]: 72.4% | viability at 72 h, 300 nM [1, 4]: 69.4% | viability at 72 h, 1000 nM [1, 3]: 49.5% | viability at 72 h, 1000 nM [1, 4]: 56.6% | viability at 72 h, 3000 nM [1, 3]: 32.5% | viability at 72 h, 3000 nM [1, 4]: 40.5% | IC50 ([2]; 3T3, 10 000 b/j, individual experiments, read-out: IC50): 1080 nM and 1700 nM and 1480 nM | MTT viability (0 = 100) ([2]; 3T3, 10 000 b/j, koncentrace 3 nM, individual experiments): 107.858 and 101.159 and 95.977 | MTT viability (0 = 100) ([2]; 3T3, 10 000 b/j, koncentrace 10 nM, individual experiments): 95.2009 and 97.9751 and 101.968 and 103.897 | MTT viability (0 = 100) ([2]; 3T3, 10 000 b/j, koncentrace 30 nM, individual experiments): 82.5017 and 95.1437 and 97.4935 and 93.6042 | MTT viability (0 = 100) ([2]; 3T3, 10 000 b/j, koncentrace 100 nM, individual experiments): 72.3252 and 75.1668 and 68.1869 | MTT viability (0 = 100) ([2]; 3T3, 10 000 b/j, koncentrace 300 nM, individual experiments): 69.1649 and 63.247 and 72.6411 | MTT viability (0 = 100) ([2]; 3T3, 10 000 b/j, koncentrace 1000 nM, individual experiments): 57.0662 and 64.2452 and 55.7111 | MTT viability (0 = 100) ([2]; 3T3, 10 000 b/j, koncentrace 3000 nM, individual experiments): 36.2815 and 49.6279 and 43.6868 | IC50 ([2]; Mus musculus, Fibroblast, 3T3, 10 000 b/j, individual experiments, read-out: IC50): 977 nM | IC50 ([2]; Mus musculus, Fibroblast, 3T3, 10 000 b/j, mean, read-out: IC50, průměr): 1310 nM | IC50 ([2]; Mus musculus, Fibroblast, 72 h, 3T3, 72 h/37°C, mean ± SD, n ≥ 4, read-out: IC50): 1310 ± 337 nM | Internalized 59Fe uptake, % of the control (MCF-7 cells; 25 μM, 3 h/37°C, MCF-7, 0.75 μM 59Fe2-Tf): 11.5% | Uptake 59Fe, Ave (MCF-7 cells; average of all replicates, Control Ave = 100): 11.5476 | Uptake 59Fe (MCF-7 cells; single replicate (three per date), Control Ave = 100): 9.2904 and 11.2475 and 13.4264 and 10.306 and 10.873 and 13.9435 and 11.6905 and 10.1589 and 12.9919 | Activation of caspases 7, 8 and 9 (caspases 3/7; 100 nM, 3 h, MCF-7, statement covers caspases 7, 8 and 9): did not activate any of the caspases | Caspase 7 activity, % of the control (caspases 3/7; 100 nM, 24 h, MCF-7, corrected for viability): 203% | Caspase 7 activity, % of control (caspases 3/7; 100 nM, 72 h, MCF-7, corrected for viability): 318% | kaspáza (3) a 7, % kontroly (caspases 3/7; 3 hodiny (3 h), % of control): 96.83% | kaspáza (3) a 7, průměry (means of raw signal) (caspases 3/7; 3 hodiny (3 h)): 1616.38 | kaspáza (3) a 7, raw signal (caspases 3/7; 3 hodiny): 1828 and 1581 and 1679 and 1377.5 | kaspáza (3) a 7, raw signal, průměry (caspases 3/7; 3 hodiny, mean): 1616.38 | kaspáza (3) a 7, % kontroly (caspases 3/7; 3 hodiny, mean, normalised to viability): 101.92 % kontroly | kaspáza (3) a 7, signal / viabilita (caspases 3/7; 3 hodiny, normalised to viability): 18.975 and 16.4111 and 17.4284 and 14.2987 | kaspáza (3) a 7, signal / viabilita, průměry (caspases 3/7; 3 hodiny, normalised to viability, mean): 16.7783 | kaspáza (3) a 7, % kontroly (caspases 3/7; 24 hodin (24 h), % of control): 107.61% | kaspáza (3) a 7, průměry (means of raw signal) (caspases 3/7; 24 hodin (24 h)): 2465.5 | kaspáza (3) a 7, raw signal (caspases 3/7; 24 hodin): 2823.5 and 2154.5 and 2683 and 2201 | kaspáza (3) a 7, raw signal, průměry (caspases 3/7; 24 hodin, mean): 2465.5 | kaspáza (3) a 7, % kontroly (caspases 3/7; 24 hodin, mean, normalised to viability): 203.48 % kontroly | kaspáza (3) a 7, signal / viabilita (caspases 3/7; 24 hodin, normalised to viability): 53.4249 and 40.7664 and 50.7664 and 41.6462 | kaspáza (3) a 7, signal / viabilita, průměry (caspases 3/7; 24 hodin, normalised to viability, mean): 46.651 | kaspáza (3) a 7, % kontroly (caspases 3/7; 72 hodin (72 h), % of control): 86.15% | kaspáza (3) a 7, průměry (means of raw signal) (caspases 3/7; 72 hodin (72 h)): 6404.25 | kaspáza (3) a 7, raw signal (caspases 3/7; 72 hodin): 10190.5 and 6963 and 3947 and 4516.5 | kaspáza (3) a 7, raw signal, průměry (caspases 3/7; 72 hodin, mean): 6404.25 | kaspáza (3) a 7, % kontroly (caspases 3/7; 72 hodin, mean, normalised to viability): 318.49 % kontroly | kaspáza (3) a 7, signal / viabilita (caspases 3/7; 72 hodin, normalised to viability): 376.172 and 257.032 and 145.7 and 166.722 | kaspáza (3) a 7, signal / viabilita, průměry (caspases 3/7; 72 hodin, normalised to viability, mean): 236.406

Reference: publication PMC4604124, “In Vitro Characterization of the Pharmacological Properties of the Anti-Cancer Chelator, Bp4eT, and Its Phase I Metabolites” (PLoS ONE, 2015)
